Results on 10 molecules are retold here after ChEMBL document CHEMBL1201862, “PubChem BioAssay data set” (2004).

The structures appear in SMILES notation.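 These data come from cells grown in 96-well plates and exposed to compound for 48 hours at five concentrations. GI50: concentration for 50% inhibition of growth.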 Active and inactive are the calls of the source. Cut-off read from the data, not from the text of the source: active = GI50 up to about 1.1 µM and inactive = higher. Bounds are passed on as bounds.

Among the test systems are A549; DU-145; EKVX; HOP-62; KM12; MCF7; MDA-MB-231; MDA-N; MOLT-4; OVCAR-4; OVCAR-5; OVCAR-8; SK-MEL-28; SK-MEL-2; SK-OV-3; SNB-19; SW-620; T47D; TK-10; UACC-257.
What all share (experiment): NCI tumour cell line growth inhibition, 48 h

For `COc1ccc2cc(C(=O)CCC(=O)O)ccc2c1`, the GI50 in the assay with A549, in the assay with DU-145, in the assay on EKVX, in the assay with HOP-62, in the assay with KM12 and in the assay with MCF7 was > 100 µM (inactive) throughout. Further, the GI50 in the assay with MDA-MB-231, in the assay with MDA-N, in the assay on MOLT-4, with OVCAR-4, in the assay on OVCAR-5 and in the assay on OVCAR-8 was > 100 µM (inactive) each time. Further, the GI50 in the assay with SK-MEL-28, with SK-MEL-2, in the assay with SK-OV-3, in the assay with SNB-19, in the assay on SW-620 and in the assay with T47D was > 100 µM (inactive) throughout. Also, the GI50 in the assay with TK-10 and in the assay on UACC-257 was > 100 µM (inactive) throughout.

As to `[N-]=[N+]=CC(=O)COC(=O)c1ccccc1`, the GI50 in the assay with A549 was 74.1 µM (inactive); in the assay with DU-145, > 100 µM (inactive); in the assay with EKVX, > 100 µM (inactive); with HOP-62, > 100 µM (inactive); with KM12, > 100 µM (inactive); with MCF7, 88.5 µM (inactive). Also, the GI50 in the assay on MDA-MB-231, in the assay with MDA-N, in the assay with MOLT-4, in the assay on OVCAR-4, in the assay with OVCAR-5 and in the assay with OVCAR-8 was > 100 µM (inactive) each time. In addition, the GI50 with SK-MEL-28, in the assay with SK-MEL-2, with SK-OV-3, in the assay with SNB-19, with SW-620 and in the assay on T47D was > 100 µM (inactive) throughout. The GI50 in the assay on TK-10 and in the assay with UACC-257 was > 100 µM (inactive) throughout.

Consider `[N-]=[N+]=C1C(=O)c2ccccc2-c2ccccc21`, for which the GI50 in the assay on A549 is 30.4 µM (inactive); in the assay on DU-145 it was 30.9 µM (inactive); with EKVX, 30.5 µM (inactive); in the assay with HOP-62, 41.2 µM (inactive); in the assay with KM12 it was 39.2 µM (inactive); with MCF7 it was 25.9 µM (inactive). For the same molecule, the GI50 with MDA-MB-231 is 36 µM (inactive); in the assay on MDA-N, 43.7 µM (inactive); with MOLT-4, 24.9 µM (inactive); with OVCAR-4 it was 35.8 µM (inactive); in the assay with OVCAR-5, 34.1 µM (inactive); in the assay with OVCAR-8, 30.6 µM (inactive). The GI50 in the assay on SK-MEL-28 is 60.8 µM (inactive); with SK-MEL-2, 29.4 µM (inactive); in the assay on SK-OV-3, 39.5 µM (inactive); in the assay with SNB-19, 45.8 µM (inactive); with SW-620, 37.4 µM (inactive); in the assay on T47D, 28.3 µM (inactive). Besides, the results for the GI50 in the assay with TK-10 and in the assay on UACC-257 were 54 µM (inactive) and 36.7 µM (inactive), respectively.

As for `COC(=O)/C=C1/OC(c2ccc(C)cc2)=C(Cl)C1=O`, the GI50 in the assay with A549 is 20.1 µM (inactive); in the assay on DU-145, 17.7 µM (inactive); in the assay on EKVX, 21.3 µM (inactive); with HOP-62, 19.9 µM (inactive); in the assay with KM12, 14.6 µM (inactive); in the assay on MCF7, 16.1 µM (inactive). Further, the GI50 with MDA-MB-231 is 16.9 µM (inactive); with MDA-N it was 16.4 µM (inactive); in the assay on MOLT-4 it was 4.23 µM (inactive); with OVCAR-4, 13.3 µM (inactive); in the assay on OVCAR-5, 19.1 µM (inactive); in the assay on OVCAR-8, 16.9 µM (inactive). Further, the GI50 is 16.7 µM (inactive) in the assay on SK-MEL-28; 16.7 µM (inactive) with SK-MEL-2; 24.2 µM (inactive) with SK-OV-3; 22.2 µM (inactive) in the assay on SNB-19; 10.7 µM (inactive) in the assay with SW-620; 15.3 µM (inactive) in the assay with T47D. Further, the results for the GI50 with TK-10 and in the assay on UACC-257 were 20.5 µM (inactive) and 20.3 µM (inactive), respectively.

`COC(=O)C1CC23C=CCN4CC(C2C)C2(c5ccccc5NC12)C43` (stereo not drawn): the GI50 in the assay with A549, in the assay on DU-145, in the assay on EKVX, with HOP-62, in the assay on KM12 and with MCF7 was > 100 µM (inactive) throughout. Besides, the GI50 in the assay on MDA-MB-231, in the assay with MDA-N, with MOLT-4, in the assay on OVCAR-4, in the assay on OVCAR-5 and in the assay on OVCAR-8 was > 100 µM (inactive) throughout. Besides, the GI50 with SK-MEL-28, in the assay with SK-MEL-2, in the assay on SK-OV-3, in the assay with SNB-19, in the assay with SW-620 and in the assay with T47D was > 100 µM (inactive) each time. The GI50 in the assay with TK-10 and in the assay on UACC-257 was > 100 µM (inactive) throughout.

Regarding `CC(=O)Nc1ccc(S(=O)(=O)/N=C2\C=CC(=O)c3ccccc32)cc1`, the GI50 was 9.98 µM (inactive) in the assay with A549; 7.4 µM (inactive) in the assay on DU-145; 6 µM (inactive) in the assay with EKVX; 8.83 µM (inactive) in the assay on HOP-62; 10.5 µM (inactive) with KM12; 5.01 µM (inactive) in the assay on MCF7. Moreover, the GI50 in the assay on MDA-MB-231 is 2.78 µM (inactive); with MDA-N, 1.95 µM (inactive); in the assay on MOLT-4, 0.428 µM (active); in the assay with OVCAR-4, 1.87 µM (inactive); in the assay with OVCAR-5, 8.55 µM (inactive); with OVCAR-8 it was 2.8 µM (inactive). Besides, the GI50 was 10.5 µM (inactive) with SK-MEL-28; 14.3 µM (inactive) in the assay with SK-MEL-2; 16.5 µM (inactive) in the assay with SK-OV-3; 11.6 µM (inactive) in the assay with SNB-19; 6.62 µM (inactive) with SW-620; 8.17 µM (inactive) in the assay with T47D. Further, the GI50 with TK-10 is 19.9 µM (inactive); with UACC-257, 6.22 µM (inactive).

Turning to `Cn1cc(-c2ccc(CCOC3CCCCO3)cc2)c2c(C#N)cccc21` (stereo not drawn), the GI50 in the assay on A549 is 31 µM (inactive); with DU-145, > 100 µM (inactive); in the assay with EKVX, 35.6 µM (inactive); in the assay with HOP-62, > 100 µM (inactive); with KM12 it was 61.7 µM (inactive); with MCF7, 38.3 µM (inactive). Further, the GI50 is 86.1 µM (inactive) in the assay on MDA-MB-231; 48 µM (inactive) in the assay with MDA-N; 16.1 µM (inactive) with MOLT-4; 31.8 µM (inactive) in the assay with OVCAR-4; > 100 µM (inactive) with OVCAR-5; > 100 µM (inactive) in the assay with OVCAR-8. The GI50 in the assay on SK-MEL-28 is 14.9 µM (inactive); with SK-MEL-2, 28.7 µM (inactive); with SK-OV-3, > 100 µM (inactive); with SNB-19, > 100 µM (inactive); in the assay with SW-620 it was 28.5 µM (inactive); with T47D, 21.3 µM (inactive). Besides, the GI50 is 48.3 µM (inactive) with TK-10 and 24.7 µM (inactive) in the assay on UACC-257.

On to `COc1cccc2c(NNc3ccccc3)c3ccc([N+](=O)[O-])cc3nc12`, for which the GI50 in the assay on A549 is 24.2 µM (inactive); with DU-145, 73.6 µM (inactive); in the assay with EKVX, 78.2 µM (inactive); in the assay with HOP-62 it was 60.4 µM (inactive); with KM12, 11.6 µM (inactive); in the assay with MCF7, 26.4 µM (inactive). The GI50 was 43.6 µM (inactive) in the assay on MDA-MB-231; 33.1 µM (inactive) in the assay with MDA-N; 1.03 µM (active) in the assay on MOLT-4; 42 µM (inactive) with OVCAR-4; > 100 µM (inactive) in the assay on OVCAR-5; 31.1 µM (inactive) with OVCAR-8. Besides, the GI50 in the assay with SK-MEL-28 was 43.2 µM (inactive); with SK-MEL-2, 25.8 µM (inactive); in the assay with SK-OV-3, 53.6 µM (inactive); in the assay on SNB-19 it was > 100 µM (inactive); in the assay on SW-620, 24.9 µM (inactive); in the assay on T47D it was 36.4 µM (inactive). For the same molecule, the GI50 in the assay with TK-10 was 21.3 µM (inactive); in the assay with UACC-257, 29.9 µM (inactive).

Consider `CCOC(=O)c1sc2nc(SC)nc(Nc3ccc(OC)c(OC)c3)c2c1N`, for which the GI50 in the assay with A549 was 5.28 µM (inactive); in the assay with DU-145, 20.2 µM (inactive); in the assay on EKVX, 23.3 µM (inactive); with HOP-62, 6.04 µM (inactive); with KM12 it was > 100 µM (inactive); with MCF7, 3.95 µM (inactive). The GI50 with MDA-MB-231 is 3.78 µM (inactive); with MDA-N it was > 100 µM (inactive); in the assay with OVCAR-4 it was 6.65 µM (inactive); in the assay with OVCAR-5 it was > 100 µM (inactive); in the assay on OVCAR-8, 4.81 µM (inactive); in the assay with SK-MEL-28, 14.7 µM (inactive). In addition, the GI50 in the assay with SK-MEL-2 is 19.7 µM (inactive); in the assay on SK-OV-3 it was 12.9 µM (inactive); in the assay with SNB-19 it was 18 µM (inactive); in the assay with SW-620, 7 µM (inactive); with T47D, 6.08 µM (inactive); in the assay on TK-10 it was 6.73 µM (inactive). In addition, the GI50 in the assay on UACC-257 was > 100 µM (inactive).

`COC1=CC(=O)c2c(cc(COP(N)(=O)N(CCBr)CCBr)n2C)C1=O` (stereo not drawn): the GI50 in the assay with A549 is < 0.01 µM (active); with DU-145 it was < 0.01 µM (active); in the assay with EKVX it was 0.0212 µM (active); in the assay with KM12, 1 µM (active); in the assay on MCF7, < 0.01 µM (active); in the assay on MDA-MB-231 it was 2.1 µM (inactive). Moreover, the GI50 in the assay with MDA-N is 0.242 µM (active); with MOLT-4, < 0.01 µM (active); with OVCAR-4, 1.66 µM (inactive); with OVCAR-5, 0.104 µM (active); in the assay with OVCAR-8, < 0.01 µM (active); with SK-MEL-28 it was 1.56 µM (inactive). Moreover, the GI50 with SK-MEL-2 was 1.7 µM (inactive); in the assay with SK-OV-3 it was 0.0137 µM (active); in the assay with SNB-19 it was 1.3 µM (inactive); in the assay with SW-620 it was < 0.01 µM (active); with T47D, < 0.01 µM (active); in the assay with TK-10, 0.484 µM (active). Besides, in the assay on UACC-257, the GI50 was 1.2 µM (inactive).
